Reference: US9801833B2, “Compositions and methods using tiglic aldehyde” (NESTEC S.A., priority 2013, dated 2017)
Where two headings read alike, the source gives them in different places.

What was measured:
[1] = tested on: mice; test: insulin sensitivity in mice with chronic ingestion (FIG. 4); assay type: in vivo; conditions: mice chronically fed high fat diet containing 0.2 wt %, vs same diet without
[2] = tested on: mice; test: body weight gain in mice with chronic ingestion (FIG. 3); assay type: in vivo; conditions: mice chronically fed high fat diet containing 0.2 wt %, vs same diet without
[3] = target: T1, TRPM8 (Homo sapiens, UniProt Q7Z2W7); conditions: cited from earlier work
T1 construct: expressed in transfected cells

[4] = target: T2, TRPA1 (Homo sapiens, UniProt O75762); conditions: read-out: EC50 of TRPA1 activation; cited from earlier work
T2 construct: expressed in transfected cells

[5] = tested on: mice; test: gastric emptying after a single ingestion in mice (FIG. 6); assay type: in vivo; conditions: vs sham gavage
[6] = tested on: mice; test: short term food intake after a single ingestion in mice (FIG. 5); assay type: in vivo; conditions: vs sham gavage
[7] = target: T3, TRPV1 (Homo sapiens, UniProt Q8NER1); conditions: cited from earlier work
T3 construct: expressed in transfected cells

[8] = target: T1, TRPM8; test: in vitro activation of hTRPM8 in cells (FIG. 7); assay type: cell-based; conditions: FIG. 7, squares
[9] = target: T1, TRPM8; test: desensitization of TRPM8 by pretreatment fifteen minutes before icilin (FIGS. 8A, 8B); assay type: cell-based; conditions: applied to cells fifteen minutes before icilin
Experimental: (§1) Specifically, tiglic aldehyde was applied to cells fifteen minutes before cinnamaldehyde, icilin and capsaicin, which are specific agonists for TRPA1, TRPM8 and TRPV1 cation channels, respectively. After specific agonist application, the cation channel […] was measured. […] The left bars in each graph represent the controls lacking tiglic aldehyde pretreatment, the right bars in each graph represent the samples including tiglic aldehyde pretreatment.

[10] = From the text: Without wishing to be bound by theory, the present inventors believe that activation of TRPA1 is effective to 1) help to provoke the swallowing reflex of dysphagic patients, 2) decrease appetite by delaying gastric emptying, 3) reduce body weight gain, and 4) reduce glycemia by improving insulin sensitivity or glucose tolerance, 5) improve mood, memory or cognition. Tiglic aldehyde is described as having fresh, fruity, green, pulpy and almond nutty nuances (Fenaroli's Handbook of Flavor Ingredients, sixth edition), making it more pleasant compared to other TRPA1 agonists.
[11] = target: T3, TRPV1; test: desensitization of TRPV1 by pretreatment fifteen minutes before capsaicin (FIGS. 8A, 8B); assay type: cell-based; conditions: applied to cells fifteen minutes before capsaicin
Experimental: as §1

[12] = target: T2, TRPA1; test: in vitro activation of TRPA1 in cells (FIG. 7); assay type: cell-based
[13] = tested on: "empty" cells; test: in vitro activation of "empty" cells (FIG. 7); assay type: cell-based
[14] = target: T2, TRPA1; test: desensitization of TRPA1 by pretreatment fifteen minutes before cinnamaldehyde (FIGS. 8A, 8B); assay type: cell-based; conditions: applied to cells fifteen minutes before cinnamaldehyde
Experimental: as §1

[15] = target: T3, TRPV1; test: in vitro activation of TRPV1 in cells (FIG. 7); assay type: cell-based; conditions: FIG. 7, triangles

T3 sequence (Q8NER1 whole entry, species assumed): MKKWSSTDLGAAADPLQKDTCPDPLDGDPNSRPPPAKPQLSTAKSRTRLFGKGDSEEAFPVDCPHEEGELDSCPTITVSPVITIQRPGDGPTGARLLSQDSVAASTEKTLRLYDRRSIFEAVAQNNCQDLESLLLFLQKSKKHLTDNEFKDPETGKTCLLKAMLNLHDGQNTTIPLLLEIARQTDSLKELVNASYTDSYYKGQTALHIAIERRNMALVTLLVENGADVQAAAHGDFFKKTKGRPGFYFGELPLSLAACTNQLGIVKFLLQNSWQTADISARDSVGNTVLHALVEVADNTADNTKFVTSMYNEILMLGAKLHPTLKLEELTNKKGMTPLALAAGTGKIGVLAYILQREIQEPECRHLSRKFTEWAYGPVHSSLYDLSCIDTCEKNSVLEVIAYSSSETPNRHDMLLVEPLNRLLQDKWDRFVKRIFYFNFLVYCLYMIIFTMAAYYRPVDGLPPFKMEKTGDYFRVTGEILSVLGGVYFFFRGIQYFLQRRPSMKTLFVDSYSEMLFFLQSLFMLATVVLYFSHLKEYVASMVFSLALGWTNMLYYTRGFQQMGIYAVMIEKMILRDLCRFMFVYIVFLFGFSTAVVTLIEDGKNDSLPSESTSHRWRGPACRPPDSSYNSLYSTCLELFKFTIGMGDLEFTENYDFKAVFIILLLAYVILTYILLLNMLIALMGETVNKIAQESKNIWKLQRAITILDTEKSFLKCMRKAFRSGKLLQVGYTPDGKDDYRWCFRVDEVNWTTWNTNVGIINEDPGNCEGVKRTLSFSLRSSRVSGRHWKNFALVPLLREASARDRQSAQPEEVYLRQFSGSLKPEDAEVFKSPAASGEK
T1 sequence (Q7Z2W7 whole entry): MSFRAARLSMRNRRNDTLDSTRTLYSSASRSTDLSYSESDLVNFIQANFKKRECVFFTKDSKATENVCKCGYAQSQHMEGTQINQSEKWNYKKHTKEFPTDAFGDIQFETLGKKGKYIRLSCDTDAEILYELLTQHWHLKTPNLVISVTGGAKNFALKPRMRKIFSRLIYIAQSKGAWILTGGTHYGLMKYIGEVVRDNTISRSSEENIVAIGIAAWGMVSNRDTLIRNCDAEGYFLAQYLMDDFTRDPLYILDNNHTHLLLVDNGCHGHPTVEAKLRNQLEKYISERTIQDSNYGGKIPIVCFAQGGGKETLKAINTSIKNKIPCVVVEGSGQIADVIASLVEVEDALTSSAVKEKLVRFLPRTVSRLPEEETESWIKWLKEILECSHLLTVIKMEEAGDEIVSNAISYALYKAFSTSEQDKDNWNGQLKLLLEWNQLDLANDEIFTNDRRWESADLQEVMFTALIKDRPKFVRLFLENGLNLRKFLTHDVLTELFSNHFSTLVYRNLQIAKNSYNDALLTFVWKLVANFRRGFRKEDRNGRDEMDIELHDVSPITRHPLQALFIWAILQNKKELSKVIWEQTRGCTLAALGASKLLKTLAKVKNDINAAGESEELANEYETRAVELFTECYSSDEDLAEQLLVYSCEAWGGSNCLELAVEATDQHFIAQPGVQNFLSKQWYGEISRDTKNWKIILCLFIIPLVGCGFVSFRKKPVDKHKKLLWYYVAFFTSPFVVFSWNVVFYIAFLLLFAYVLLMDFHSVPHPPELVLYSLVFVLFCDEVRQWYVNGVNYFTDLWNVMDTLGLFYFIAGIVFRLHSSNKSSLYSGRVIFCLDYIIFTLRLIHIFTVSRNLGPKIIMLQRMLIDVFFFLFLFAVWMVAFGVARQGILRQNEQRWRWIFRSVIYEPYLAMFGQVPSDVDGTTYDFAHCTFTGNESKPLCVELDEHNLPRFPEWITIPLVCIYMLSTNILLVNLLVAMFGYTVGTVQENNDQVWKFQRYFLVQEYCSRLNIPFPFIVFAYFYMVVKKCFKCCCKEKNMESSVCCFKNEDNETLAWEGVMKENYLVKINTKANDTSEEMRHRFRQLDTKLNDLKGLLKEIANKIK
T2 sequence (O75762 whole entry, species assumed): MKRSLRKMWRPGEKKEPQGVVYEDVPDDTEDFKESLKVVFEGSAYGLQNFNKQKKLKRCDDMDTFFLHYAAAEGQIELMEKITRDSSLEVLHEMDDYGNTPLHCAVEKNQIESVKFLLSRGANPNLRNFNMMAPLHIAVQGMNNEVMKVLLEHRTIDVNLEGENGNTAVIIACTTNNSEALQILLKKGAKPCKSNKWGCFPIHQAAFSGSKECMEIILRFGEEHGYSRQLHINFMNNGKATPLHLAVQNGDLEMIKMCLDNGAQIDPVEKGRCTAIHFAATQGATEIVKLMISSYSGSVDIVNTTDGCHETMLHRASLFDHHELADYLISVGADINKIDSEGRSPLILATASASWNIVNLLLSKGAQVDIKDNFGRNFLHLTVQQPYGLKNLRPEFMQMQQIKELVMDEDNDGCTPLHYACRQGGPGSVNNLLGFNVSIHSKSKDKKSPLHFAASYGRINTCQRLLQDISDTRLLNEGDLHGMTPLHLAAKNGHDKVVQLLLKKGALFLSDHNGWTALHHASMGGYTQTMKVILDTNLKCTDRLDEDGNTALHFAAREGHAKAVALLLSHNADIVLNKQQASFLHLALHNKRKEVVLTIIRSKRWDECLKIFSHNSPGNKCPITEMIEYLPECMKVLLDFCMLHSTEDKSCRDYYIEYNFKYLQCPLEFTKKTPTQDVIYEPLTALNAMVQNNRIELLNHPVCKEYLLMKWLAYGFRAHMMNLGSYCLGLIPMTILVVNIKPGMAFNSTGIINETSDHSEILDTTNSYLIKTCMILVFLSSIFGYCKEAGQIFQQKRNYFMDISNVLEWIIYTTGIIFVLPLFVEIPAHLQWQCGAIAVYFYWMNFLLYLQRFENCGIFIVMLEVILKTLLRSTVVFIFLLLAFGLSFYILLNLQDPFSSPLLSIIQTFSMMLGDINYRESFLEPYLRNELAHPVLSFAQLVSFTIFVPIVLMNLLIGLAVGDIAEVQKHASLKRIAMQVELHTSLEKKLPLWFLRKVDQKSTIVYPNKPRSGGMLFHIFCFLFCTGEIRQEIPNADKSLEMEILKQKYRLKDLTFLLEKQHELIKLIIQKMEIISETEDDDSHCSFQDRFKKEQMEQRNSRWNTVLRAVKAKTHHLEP

| Structure (SMILES) | insulin sensitivity [1] | body weight gain [2] | activation of TRPM8 [3] | EC50 [4] [µM] | gastric emptying [5] | short term food intake [6] | activation of TRPV1 [7] | activation of hTRPM8 [8] | desensitization of TRPM8 [9] | irritancy [10] | desensitization of TRPV1 [11] | activation of TRPA1 ([12]; FIG. 7, diamonds) | efficacy of TRPA1 activation relative to cinnamaldehyde ([12]; relative to known TRPA1 agonist cinnamaldehyde) [%] | activation of "empty" cells [13] | desensitization of TRPA1 [14] | activation of TRPV1 [15] |
| --- | --- | --- | --- | --- | --- | --- | --- | --- | --- | --- | --- | --- | --- | --- | --- | --- |
| O=CC=Cc1ccccc1 [cinnamaldehyde] | improved insulin sensitivity | gained less weight | not | ~60 | delayed gastric emptying | reduction in short term food intake | not | – | – | – | – | – | – | – | – | – |
| C/C=C(\C)C=O [tiglic aldehyde] | – | – | – | – | – | – | – | no activation was observed | does not desensitize | not an irritant | does not desensitize | activated TRPA1 (diamonds) in a dose-dependent fashion | 120 | no activation was observed | does not desensitize | no activation was observed |
